Assay results reported in patent US10357474B2, “Preparation and use of a composition for prevention and mitigation of the effects of radiation” (BioVentures, LLC, priority 2013, dated 2019).

Key:
[1] = test system: H9c2 heart cardiomyocytes; experiment: Cellular bioenergetics measurements (oxygen consumption rate, XF96 Seahorse); assay type: cell-based, rat; conditions: for Effect of H2O2 treatment on OCR after pre-treatment: 5 μM overnight pre-treatment
Method: H9C2 heart cardiomyocytes were treated with 5 μM DT3 or 5 μM DG-3 or vehicle control (DMSO) overnight. Oxygen Consumption Rates (OCR) were measured and cellular bioenergetics profiles were determined using XF96 Seahorse Extracellular Flux Analyzer.
FIG. 6 is a graph showing the effects of hydrogen peroxide on the OCR of cardiomyocytes after the indicated treatments. H9C2 heart cardiomyocytes were exposed to 50 or 100 μM H2O2 for 4 h. Oxygen Consumption Rates (OCR) were measured and cellular bioenergetics profiles were determined using XF96 Seahorse Extracellular Flux Analyzer.
(§1) FIG. 7 is a graph showing the effects of 50 μM hydrogen peroxide on the OCR of cardiomyocytes after the indicated pre-treatment with DMSO (dimethylsulfoxide vehicle), DT3 or DG-3. Cellular bioenergetic profiles were determined using XF96 Seahorse Extracellular Flux Analyzer.
FIG. 8 is a graph showing the effects of 100 μM hydrogen peroxide on the OCR of cardiomyocytes after the indicated pre-treatment with DMSO (dimethylsulfoxide vehicle), DT3 or DG-3. Cellular bioenergetic profiles were determined using XF96 Seahorse Extracellular Flux Analyzer.
as §1, with “9” for “7”, “6 Gy ionizing radiation” for “50 μM hydrogen peroxide”, “vehicle).” for “vehicle),”, “Analyzer 1 h following radiation exposure.” for “Analyzer.”
Cellular oxygen consumption rates (OCR) were measured at 37° C. using an XF96 extracellular analyzer (Seahorse Bioscience) as previously described (Ferrick D A, Neilson A, and Beeson C. Advances in measuring cellular bioenergetics using extracellular flux. Drug Discov Today 2008; 13: 268-274). Briefly, 10,000 H9C2 cells per well were plated. The cells were treated with 5 μM DT3 or 5 μM DG-3 or vehicle control (DMSO) overnight. Cells were then exposed to 0, 50 or 100 μM H2O2 for 4 h or 6 Gy ionizing radiation (IR). The media in the wells were changed to unbuffered Dulbecco's Modified Eagle Medium (DMEM) supplemented with 4 mM […] and incubated in a non-CO2 incubator for 1 h at 37° C. Three baseline measurements were acquired before injection of mitochondrial inhibitors or uncouplers. Readings were taken after sequential addition of oligomycin (10 μM), FCCP (10 μM), and rotenone/antimycin A (10 μM). OCR was calculated by the Seahorse XF96 software and represents an average of 12-16 measurements.

[2] = test system: H9c2 heart cardiomyocytes; experiment: Morphology assay of cardiomyocytes exposed to H2O2; assay type: cell-based, rat
Method: FIG. 3 is a set of photographs showing the cardiomyocytes after the indicated treatments. H9C2 heart cardiomyocytes were treated with 5 μM DT3 or 5 μM DG-3 or vehicle control (DMSO) overnight. Cells were then exposed to H2O2 for 4 h. Morphological changes were recorded under an inverted microscope.
(§2) DG-3, provided herein, is a standardized extract derived from annatto seeds that contains only […] and GT3. Because radiation-induced mitochondrial damage and oxidative stress impacts several critical biologic parameters such as DNA damage repair and stem cell fate, in this research we have compared the effects of DT3, GT3, and DG-3 against radiation induced mitochondrial dysfunction and oxidative stress. […] Furthermore, the same treatment preserved the cell viability and mitochondrial respiration in these cells when followed by oxidative insult via H2O2 treatment. Methods of making DG-3 and methods of using these compositions are provided herein.
H9c2 heart cardiomyocytes were treated with 5 μM DT3 or 5 μM DG-3 or vehicle control (DMSO) overnight. Cells were then exposed to 100 or 200 μM H2O2 for 4 h. Morphological changes were recorded under an inverted microscope.

[3] = test system: H9C2 rat heart cardiomyocyte cells; experiment: Total antioxidant capacity (copper reducing equivalents) of cardiomyocytes; assay type: cell-based; conditions: 5 μM treatment
From the text: as §2

[4] = test system: Wistar rat liver microsomes; experiment: Inhibition of TBHP induced lipid peroxidation in rat liver microsomes; assay type: biochemical; conditions: rat liver microsomes 1 mg/ml, 1 h pre-incubation at 37° C., 200 μM TBHP for 30 min; read-out: IC50 inhibition of lipid peroxidation (antioxidant potential)
Method: Data are means±SEM of triplicate experiments. One of the most well-known properties of the vitamin E components is their ability to prevent lipid peroxidation. See Traber et al. (2011) Free Radic Biol Med 51(5):1000-1013. Briefly, the antioxidant activity of DG-3 was evaluated in rat liver microsomes by measuring inhibition of lipid peroxidation after TBHP ([…]) treatment. Wistar rat liver microsomes (BD Biosciences) were diluted in phosphate buffer, 0.1 M (pH 7.4), at the final protein concentration of 1 mg/ml. The microsomes were treated with different concentrations of DG-3 or DT3 (diluted with DMSO) and incubated at 37° C. for 1 hour before inducing lipid peroxidation with 200 μM TBHP (DMSO) for 30 min.

[5] = 5 μM treatment followed by H2O2 treatment

SMILES: CC(C)=CCC/C(C)=C/CC/C(C)=C/CC[C@]1(C)CCc2cc(O)cc(C)c2O1 [DT3, δ-tocotrienol]
- Effect of H2O2 treatment on OCR after pre-treatment ([1]; 50 μM H2O2 for 4 h (FIG. 7)): eliminated
- Effect of H2O2 treatment on OCR after pre-treatment ([1]; 100 μM H2O2 for 4 h (FIG. 8)): significantly reduced
- Oxygen consumption rate (OCR) compared to controls ([1]; 5 μM overnight, no H2O2 (FIG. 5)): modestly improved
- Mitochondrial respiration after oxidative insult via H2O2 [1, 5]: preserved
- Morphological changes (cell damage) after H2O2 ([2]; 5 μM overnight pre-treatment, then 100 μM H2O2 for 4 h): damage is limited
- Morphological changes (cell monolayer) after H2O2 ([2]; 5 μM overnight pre-treatment, then 200 μM H2O2 for 4 h): still maintain a monolayer with only a few rounded cells
- Cell viability after oxidative insult via H2O2 [2, 5]: preserved
- Total antioxidant capacity (copper reducing equivalents) [3]: did not change
- IC50 [4]: 2580 nM
